Results: ChEMBL document CHEMBL4024723, “Design, synthesis, and biological activity of novel tetrahydropyrazolopyridone derivatives as FXa inhibitors with potent anticoagulant activity” (Bioorg Med Chem, 2017)

Legend:
Plasma [1] = experiment: Anticoagulant activity in rabbit plasma assessed as concentration required to double prothrombin time; type: functional, Oryctolagus cuniculus
Plasma [2] = experiment: Anticoagulant activity in human plasma assessed as concentration required to double activated partial thromboplastin time; type: functional
Plasma [3] = experiment: Anticoagulant activity in human plasma assessed as concentration required to double prothrombin time; type: functional
Plasma [4] = experiment: Anticoagulant activity in rabbit plasma assessed as concentration required to double activated partial thromboplastin time; type: functional, Oryctolagus cuniculus
Coagulation factor X [5] = target: T1, Coagulation factor X (Homo sapiens, UniProt P00742); experiment: Inhibition of human F10a assessed as decrease in p-nitroaniline cleavage from pefachrome F10a at 0.5 uM preincubated for 10 mins followed by substrate addition measured after 20 mins relative to control
Coagulation factor X [6] = target: T1, Coagulation factor X; experiment: Inhibition of human F10a assessed as decrease in p-nitroaniline cleavage from pefachrome F10a at 5 uM preincubated for 10 mins followed by substrate addition measured after 20 mins relative to control
Rattus norvegicus = experiment: Inhibition of thrombus formation in Sprague-Dawley rat at 10 mg/kg, po after 2 hrs relative to control; type: functional
Coagulation factor X [7] = target: T1, Coagulation factor X; experiment: Inhibition of human F10a assessed as decrease in p-nitroaniline cleavage from pefachrome F10a preincubated for 10 mins followed by substrate addition measured after 20 mins

T1 sequence (P00742 41-179 limits assumed): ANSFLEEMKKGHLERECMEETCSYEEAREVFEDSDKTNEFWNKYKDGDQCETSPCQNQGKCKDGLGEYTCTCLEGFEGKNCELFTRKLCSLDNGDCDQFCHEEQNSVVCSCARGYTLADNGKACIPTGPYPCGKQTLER
T1 sequence (P00742 235-488 limits assumed): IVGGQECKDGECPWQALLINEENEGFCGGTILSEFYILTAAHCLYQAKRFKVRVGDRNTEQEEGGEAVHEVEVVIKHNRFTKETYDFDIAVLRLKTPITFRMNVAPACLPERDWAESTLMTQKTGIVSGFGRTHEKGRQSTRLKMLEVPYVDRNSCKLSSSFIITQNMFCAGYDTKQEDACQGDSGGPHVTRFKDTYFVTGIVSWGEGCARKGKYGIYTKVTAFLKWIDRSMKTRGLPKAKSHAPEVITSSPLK

SMILES	2PT (Plasma [1]) [µM]	2aPTT (Plasma [2]) [µM]	2PT (Plasma [3]) [µM]	2aPTT (Plasma [4]) [µM]	inhibition (Coagulation factor X [5]) [%]	inhibition (Coagulation factor X [6]) [%]	inhibition in vivo at 10 mg/kg (Rattus norvegicus) [%]	IC50 (Coagulation factor X [7]) [µM]
COc1ccc(-n2nc(-n3cnnc3)c3c2C(=O)N(c2ccc(N4CCCCC4=O)cc2)CC3)cc1	5.7	10	4.9	13.7	–	–	–	–
COc1ccc(-n2nc(Cn3nc(-c4ccccc4)[nH]c3=O)c3c2C(=O)N(c2ccc(N4CCCCC4=O)cc2)CC3)cc1	12.4	27.1	11.7	29.8	–	–	–	–
COc1ccc(-n2nc(C3=NC(C)CN3)c3c2C(=O)N(c2ccc(N4CCCCC4=O)cc2)CC3)cc1 (stereo not given)	10	14.6	8.9	17.1	–	–	–	–
COc1ccc(-n2nc(-n3cnnc3N)c3c2C(=O)N(c2ccc(N4CCCCC4=O)cc2)CC3)cc1	5.9	8.3	4.1	9.1	–	–	–	–
COc1ccc(-n2nc(Cn3cnc(-c4ccccc4)n3)c3c2C(=O)N(c2ccc(N4CCCCC4=O)cc2)CC3)cc1	3.4	3.6	2.4	5	–	–	–	–
COc1ccc(-n2nc(Cn3ccnn3)c3c2C(=O)N(c2ccc(N4CCCCC4=O)cc2)CC3)cc1	2.1	3.7	2.4	3.9	–	–	–	–
COc1ccc(-n2nc(Cn3cnc(-c4ccc(F)cc4)n3)c3c2C(=O)N(c2ccc(N4CCCCC4=O)cc2)CC3)cc1	2.1	2.3	0.9	3.1	60.6	70.3	–	–
COc1ccc(-n2nc(Cn3cc(C(N)=O)nn3)c3c2C(=O)N(c2ccc(N4CCCCC4=O)cc2)CC3)cc1	2.1	3.1	1.4	5.2	–	–	–	–
CCN(CC)Cc1nncn1-c1nn(-c2ccc(OC)cc2)c2c1CCN(c1ccc(N3CCCCC3=O)cc1)C2=O	8	9.6	7.2	11.5	–	–	–	–
COc1ccc(-n2nc(Cn3cnc(-c4ccc(Cl)cc4)n3)c3c2C(=O)N(c2ccc(N4CCCCC4=O)cc2)CC3)cc1	3.5	3.6	1.9	5	–	–	–	–
COc1ccc(-n2nc(-n3cnnc3CN3CCCC3)c3c2C(=O)N(c2ccc(N4CCCCC4=O)cc2)CC3)cc1	8.4	15.6	7.6	18	–	–	–	–
COc1ccc(-c2ncn(Cc3nn(-c4ccc(OC)cc4)c4c3CCN(c3ccc(N5CCCCC5=O)cc3)C4=O)n2)cc1	1.2	1.1	0.8	1.7	66.1	76.4	–	–
COc1ccc(-n2nc(C(N)=O)c3c2C(=O)N(c2ccc(N4CCCCC4=O)cc2)CC3)cc1 [APIXABAN]	1	0.9	0.8	1.4	–	–	95	–
COc1ccc(-n2nc(C3=NCCCN3)c3c2C(=O)N(c2ccc(N4CCCCC4=O)cc2)CC3)cc1	10.8	13.5	9.4	15.4	–	–	–	–
COc1ccc(-n2nc(Cn3cnc(-c4cccnc4)n3)c3c2C(=O)N(c2ccc(N4CCCCC4=O)cc2)CC3)cc1	3.2	4.3	2	5.2	–	–	–	–
COc1ccc(-n2nc(-n3cnnn3)c3c2C(=O)N(c2ccc(N4CCCCC4=O)cc2)CC3)cc1	5.7	7.3	4.2	8.2	–	–	–	–
COc1ccc(-n2nc(C3=NCCCCN3)c3c2C(=O)N(c2ccc(N4CCCCC4=O)cc2)CC3)cc1	12.1	24.3	10.9	26.9	–	–	–	–
COc1ccc(-n2nc(Cn3cc(C#N)nn3)c3c2C(=O)N(c2ccc(N4CCCCC4=O)cc2)CC3)cc1	0.9	1	0.7	1.5	86.7	94	89	0.36
COc1ccc(-n2nc(-n3cnnc3CN3CCOCC3)c3c2C(=O)N(c2ccc(N4CCCCC4=O)cc2)CC3)cc1	0.9	0.7	0.5	1.2	94.5	99	98	0.14
COc1ccc(-n2nc(C3=NCCN3C)c3c2C(=O)N(c2ccc(N4CCCCC4=O)cc2)CC3)cc1	9.6	10.5	8.8	12	–	–	–	–
COc1ccc(-n2nc(Cn3cnc(-c4ccncc4)n3)c3c2C(=O)N(c2ccc(N4CCCCC4=O)cc2)CC3)cc1	1.9	2.3	1.6	2.1	–	–	–	–
COc1ccc(-n2nc(Cn3nnc4ccccc43)c3c2C(=O)N(c2ccc(N4CCCCC4=O)cc2)CC3)cc1	29.4	31.6	25.2	39.1	–	–	–	–
COc1ccc(-n2nc(C3=NCCN3)c3c2C(=O)N(c2ccc(N4CCCCC4=O)cc2)CC3)cc1	7.5	11.8	6.2	12.5	–	–	–	–
COc1ccc(-n2nc(-n3cnnc3C)c3c2C(=O)N(c2ccc(N4CCCCC4=O)cc2)CC3)cc1	1.7	2.8	1.2	3	55.1	65.2	–	–
COc1ccc(-c2nn(Cc3nn(-c4ccc(OC)cc4)c4c3CCN(c3ccc(N5CCCCC5=O)cc3)C4=O)c(=O)[nH]2)cc1	19.3	19.5	17.7	23.2	–	–	–	–
